Test results reported in patent US6605639B1, “Ligands of nuclear receptor” (Nuclear Receptor Research, Ltd., priority 1998, dated 2003).
Values after ≈ are worked out from the molar mass of the structure shown. Values joined by “and” are separate entries in the source; they are usually repeats but may differ in a detail not shown here. Equal entries are not always repeated.

Legend:
mouse and rat = assay: Oral administration of ascochlorin to rodents; type: in vivo
Description: These effects make ascochlorin adequate as a remedy for insulin resistance syndrome. In animal experiments, however, the anorexic effect is similar to the effect of enhancing the action of insulin, which makes it highly difficult to evaluate the drug effect as an insulin enhancing agent. Thus, attempts were made to synthesis derivatives having a relatively weak anorexic effect by synthesizing various derivatives through the modification of the molecular structure of ascochlorin.

DOCA hypertensive rats = assay: Aneurysm formation in the mesenteric artery of DOCA hypertensive rats; type: in vivo, rat; design: Lesion index, individual rats / Lesion index, Avg: scale not given here; settings: for Appearance frequency (node count/arteriole count×100), individual rats / Lesion index, individual rats / Appearance frequency, Avg / Lesion index, Avg / Node count, Avg / Node count, individual rats: 7 weeks; for Appearance frequency, Avg / Lesion index, Avg / Node count, Avg: 6 rats; for Node count, individual rats: counted thrice, average
Description: The compounds of the present invention show an effect of inhibiting periarteritis nodosa in a malignant hypertension model rat in which periarteritis nodosa arises in the mesenteric artery and progresses into aneurysm. Among aneurysms, those formed in the mesenteric artery can be treated quantitatively. Thus, the mesenteric artery was taken out and fixed with formalin. Then it was fat-stained and arterioles and aneurysms were counted thrice and the average aneurysm count per arteriole was calculated. To rats with renal hypofunction due to the excision of one kidney, […] saline, having a somewhat higher osmotic pressure than plasma, was given as drinking water and 10 mg/kg of deoxycorticosterone acetate (DOCA) (a mineral corticoid) was subcutaneously administered at intervals of 1 week. Twenty-four male Wistar rats were divided into 4 groups at random. After taking out the left kidney, each animal was allowed to stand and the operative wound was fused. […] The experiment was carried out for 7 weeks. Since the initiation of the experiment, the feed intake, water intake, urine, body weight and blood pressure of each group were measured once every three days.
The average blood pressure exceeded 180 mmHg in the 3rd week and attained 200 mmHg in the 4th week. […] In the 7th week, each animal was dissected and the mesenteric artery was taken out. After treating with formalin, the artery was fat-stained and aneurysms were counted. […] In the high-dose Compound-6 group, the average aneurysm count per arteriole was lowered to 0.27±0.05.
Arterioles and nodes in the mesenteric artery were each counted thrice and the average was calculated.
a) Appearance frequency=node count/arteriole count×100 (%).

Solubility = type: physicochemical
Method: Subsequently, Compound-6 was added to the serum to examine the formation of a Schiff base in vitro. […] When Compound-6 dissolved in dimethyl sulfoxide at a high concentration was added in portions to bovine serum, Compound-6 was dissolved in the serum at a ratio of […] (i.e., 1000-fold) and the serum turned yellow depending on the concentration of Compound-6. When an organic solvent (ethanol, acetonitrile, etc.) was added to this yellow serum, the coloring matter was not dissolved in the organic solvent but precipitated as yellow serum protein. The organic solvent layer contained no Compound-6. However, Compound-6 was quantitatively recovered as an acetonitrile solution by adding acetonitrile containing 1% of acetic acid to this yellow precipitate and allowing the mixture to stand for 1 week. In a reaction between a protein and a drug molecule, there has been taken no consideration into the conversion into a novel compound via the formation of a covalent bond between the drug and serum protein in vivo. However, it is obvious that aldehyde group in the benzene ring of the compounds of the present invention and amino group of serum protein form a Schiff base on the basis of the following facts. (1) The compounds of the present invention cannot be detected by any usual methods from the serum of animals to which the compounds have been administered. (2) The compounds of the present invention are released by adding an acidified organic solvent in a large amount to the serum and allowing to stand at room temperature for about 1 week. (3) When added to serum in vitro, the compounds of the present invention are dissolved at a ratio as high as 1000-fold and can be recovered by the same method as used in recovering the compounds of the present invention from the serum of animals to which the compounds have been administered. (4) The serum of animals, to which the compounds have been administered, or serum containing the compounds of the present invention turns into yellow.

[1] = Oral administration of radioisotope-labeled compound: recovery and distribution of radioactivity; type: in vivo, rat; settings: once
Description: The Schiff base formed by the reaction of the compound of the present invention with serum protein is an inactivated compound with a masked biological activity. […] It is still interesting that the radioactive compound incorporated into the adipocyte tissue was free Compound-6 dissolved in oil droplets in cells. It is unknown why the radioactivity is distributed selectively in adipocyte tissue and accumulated with the passage of time. […] Namely, the compound of the present invention is converted into a highly safe Schiff base with the masked biological activity at the step of being absorbed via digestive tract. This Schiff base is adsorbed on the target cell surface layer and incorporated into the cells via endocytosis. Then it is hydrolyzed to regenerate the free Compound-6. The free Compound-6 is dissolved in oil droplets in depot fat. In adipocytes, it is gradually dissolved in cytoplasm and exerts its effect. When depot fat in white adipocyte tissue is transported into other tissues as an energy source, the free Compound-6 is transported together with the fat. That is to say, it also serves as a depot simultaneously. The compound according to the present invention is hardly incorporated into other tissues. […] Different from retinoids, the compounds of the present invention can exert the effects without causing the side effects inherent to retinoids. The reasons are, without doubt, related to kinetics (absorption, transportation, regeneration of activated compound in target cell surface layer, etc.) of the compounds of the present invention, which differ from those of retinoids. […]

## 3-[5-[l(R),2(S),6(S)-trimethyl-3-oxocylohexyl]-3-methyl-2,4-pentadienyl]-2,4-dihydroxy-5-chloro-6-methylbenzaldehyde [Compound-1]
Mouse and rat; mouse and rat
  effects of oral administration: anorexic effect as well as effects of lowering the blood glucose level, the serum lipid level and the serum insulin level
Mouse and rat; oral, anesthetized rats and hypertensive rats
  blood pressure: potent effect of lowering blood pressure

## COc1c(Cl)c(C)c(C=O)c(O)c1C/C=C(C)/C=C/[C@@]1(C)[C@H](C)CCC(=O)[C@@H]1C [Compound-6, 4-O-methylASC]
DOCA hypertensive rats; 10 mg/kg/day
  Appearance frequency (node count/arteriole count×100), individual rats: 25.89% and 20.56% and 27.27% and 274.91% and 33.35% and 15.00%
  Lesion index, individual rats: 1 (5×) and 4
  Appearance frequency, Avg: 66.16 ± 41.83%
  Lesion index, Avg: 1.50 ± 0.50
  Node count, Avg: 9.27
  Node count, individual rats: 2.33 (2×) and 3.00 and 40.33 and 5.67 and 2.00
DOCA hypertensive rats; 40 mg/kg/day
  Appearance frequency (node count/arteriole count×100), individual rats: 7.89% and 3.19% and 16.67% and 36.59% and 25.62% and 28.87%
  Lesion index, individual rats: 1
  Appearance frequency, Avg: 26.57 ± 5.24 %
  Lesion index, Avg: 1.00 ± 0.00
  Node count, Avg: 2.67
  Node count, individual rats: 1.00 and 0.33 and 2.00 and 5.00 and 3.33 and 4.33
DOCA hypertensive rats; high-dose group (40 mg/kg/day), 7th week
  average aneurysm count per arteriole: 0.27±0.05
DOCA hypertensive rats; low-dose group (10 mg/kg/day), 7th week
  aneurysms per arteriole on average: 0.66±0.41
Solubility; added in portions from dimethyl sulfoxide solution
  dissolved in bovine serum at a ratio of: 800 µg/mL
Solubility; bovine serum
  solubility in serum relative to PBS: 1000 fold
Solubility; phosphate buffer saline (PBS)
  solubility: 0.8 µg/mL (≈ 1.91 µM)
[1]
  radioactivity incorporated into white adipocyte tissue: elevated day by day
  route of excretion of radioactivity: mostly excreted via feces
  time after which radioactivity disappeared in most of the organs: 3 days
